Where a name gives a salt, the structure may show the parent alone. ± gives the standard error.
Columns and labels:
621-102 (TSC2-deficient) [1] = test: relative viability vs DMSO; higher = less cytotoxic; details: serum: 10% FBS, 72 h
621-103 (TSC2-rescued) = test: as above; details: serum: 10% FBS, 72 h
621-102 (TSC2-deficient) [2] = test: relative viability vs DMSO (fraction); higher = less cytotoxic; details: serum: 0.1% FBS, 72 h
UMB1949 (TSC2-deficient) = test: as above; details: serum: 0.1% FBS, 72 h;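 also: renal angiomyolipoma cell lines screened in 384-well plates, viability normalized per plate to DMSO-treated cells, each plate carrying 50 nM rapamycin and 1 µM staurosporine controls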

SMILES | relative viability (621-102 (TSC2-deficient) [1]; 0.0001 µM) [%] | relative viability (621-102 (TSC2-deficient) [1]; 0.001 µM) [%] | relative viability (621-102 (TSC2-deficient) [1]; 0.01 µM) [%] | relative viability (621-102 (TSC2-deficient) [1]; 0.1 µM) [%] | relative viability (621-102 (TSC2-deficient) [1]; 1 µM) [%] | relative viability (621-102 (TSC2-deficient) [1]; 10 µM) [%] | relative viability (621-103 (TSC2-rescued); 0.0001 µM) [%] | relative viability (621-103 (TSC2-rescued); 0.001 µM) [%] | relative viability (621-103 (TSC2-rescued); 0.01 µM) [%] | relative viability (621-103 (TSC2-rescued); 0.1 µM) [%] | relative viability (621-103 (TSC2-rescued); 1 µM) [%] | relative viability (621-103 (TSC2-rescued); 10 µM) [%] | relative viability (621-102 (TSC2-deficient) [2]; 0.0128 nM) | relative viability (621-102 (TSC2-deficient) [2]; 0.064 nM) | relative viability (621-102 (TSC2-deficient) [2]; 0.32 nM) | relative viability (621-102 (TSC2-deficient) [2]; 1.6 nM) | relative viability (621-102 (TSC2-deficient) [2]; 8 nM) | relative viability (621-102 (TSC2-deficient) [2]; 40 nM) | relative viability (621-102 (TSC2-deficient) [2]; 200 nM) | relative viability (621-102 (TSC2-deficient) [2]; 1000 nM) | relative viability (621-102 (TSC2-deficient) [2]; 5000 nM) | relative viability (UMB1949 (TSC2-deficient); 0.0128 nM) | relative viability (UMB1949 (TSC2-deficient); 0.064 nM) | relative viability (UMB1949 (TSC2-deficient); 0.32 nM) | relative viability (UMB1949 (TSC2-deficient); 1.6 nM) | relative viability (UMB1949 (TSC2-deficient); 8 nM) | relative viability (UMB1949 (TSC2-deficient); 40 nM) | relative viability (UMB1949 (TSC2-deficient); 200 nM) | relative viability (UMB1949 (TSC2-deficient); 1000 nM) | relative viability (UMB1949 (TSC2-deficient); 5000 nM)
c1ccc2c(-c3cnn4cc(-c5ccc(N6CCNCC6)cc5)cnc34)ccnc2c1 | 92.1 ± 4.3 | 95.1 ± 3.5 | 92.2 ± 3.1 | 91.6 ± 2.6 | 71.9 ± 2.9 | 0.885 ± 0.12 | 90.6 ± 2.2 | 104 ± 0.35 | 93.2 ± 1.9 | 88 ± 1.8 | 62.5 ± 2.2 | 0.919 ± 0.12 | 0.953 | 0.778 | 0.956 | 0.795 | 0.719 | 0.83 | 0.534 | 0.0661 | 0.0132 | 1.1 | 1.14 | 1.15 | 1.08 | 1.07 | 1.1 | 0.943 | 0.00737 | 0.0056
O=C(/C=C/c1ccc(CN(CCO)CCc2c[nH]c3ccccc23)cc1)NO [LAQ824] | 92.2 ± 3.3 | 87.2 ± 0.88 | 83.3 ± 3.2 | 54.8 ± 0.8 | 31.7 ± 1.1 | 16.2 ± 0.46 | 94.4 ± 1.2 | 94.1 ± 1.4 | 67.9 ± 1.9 | 21.1 ± 0.62 | 2.61 ± 0.065 | 1.459 ± 0.0077 | 1.04 | 0.934 | 0.921 | 0.89 | 0.628 | 0.173 | 0.0545 | 0.00134 | 0.000846 | 1.01 | 0.942 | 0.887 | 0.67 | 0.0147 | 0.00199 | 0.000488 | 0.000621 | 0.000364
O=C(Cc1ccc(-c2ccc(OCCN3CCOCC3)cc2)cn1)NCc1ccccc1 [KX2-391] | 90.4 ± 1.4 | 98.1 ± 14 | 70 ± 2.2 | 47.7 ± 0.7 | 35.2 ± 2.1 | 37.3 ± 0.46 | 101 ± 3.5 | 96.4 ± 5.7 | 58.7 ± 3.5 | 50.8 ± 1 | 33.05 ± 0.28 | 34.1 ± 1.5 | 1.18 | 0.965 | 1.06 | 0.813 | 0.205 | 0.0932 | 0.069 | 0.0401 | 0.0343 | 1.23 | 1.1 | 1.12 | 1.01 | 0.0594 | 0.00501 | 0.00135 | 0.00316 | 0.00418
C=C1C[C@@H]2[C@H](CC[C@]3(C)C(=O)CC[C@@H]23)[C@@]2(C)C=CC(=O)C=C12 [Exemestane] | 130 ± 2.1 | 122 ± 5.8 | 119 ± 1.2 | 114 ± 3.2 | 113 ± 5.9 | 105 ± 3.4 | 100.1 ± 0.24 | 101 ± 2.2 | 104 ± 1.6 | 100 ± 1.2 | 97.5 ± 1.4 | 92.3 ± 2.7 | 1.16 | 1.08 | 1.02 | 0.948 | 1.06 | 1.11 | 1.12 | 0.94 | 0.891 | 0.936 | 0.98 | 0.996 | 1.01 | 1.08 | 1.02 | 0.927 | 0.859 | 0.773
Nc1ccn([C@@H]2O[C@H](CO)[C@@H](O)C2(F)F)c(=O)n1 [Gemcitabine Hydrochloride] | 108 ± 11 | 93 ± 1.5 | 52.67 ± 0.069 | 52.6 ± 0.69 | 44.7 ± 3.6 | 32.9 ± 0.75 | 103 ± 1.8 | 95.2 ± 9.7 | 51.9 ± 0.63 | 50 ± 2.1 | 41.866 ± 0.0075 | 28.5 ± 1.5 | 1.07 | 0.96 | 0.953 | 0.0927 | 0.0285 | 0.023 | 0.0148 | 0.008 | 0.00219 | 1.06 | 1.01 | 1.02 | 0.0319 | 0.014 | 0.00861 | 0.007 | 0.00362 | 0.00263
O=C(/C=C/c1cccc(S(=O)(=O)Nc2ccccc2)c1)NO [Belinostat(PXD101)] | 109 ± 3.7 | 111.1 ± 1.1 | 107 ± 1.1 | 94.4 ± 1.9 | 85.6 ± 1.9 | 44.6 ± 0.66 | 97.7 ± 1.1 | 97 ± 2.6 | 97.46 ± 0.88 | 92.7 ± 1.6 | 77.17 ± 0.11 | 9.88 ± 0.36 | 1.07 | 1.04 | 1.01 | 1.03 | 1.18 | 0.923 | 0.646 | 0.271 | 0.0621 | 1.11 | 0.925 | 1.01 | 0.986 | 0.987 | 0.854 | 0.277 | 0.00312 | 0.001
Cn1c(Nc2ccc(C(F)(F)F)cc2)nc2cc(Oc3ccnc(-c4ncc(C(F)(F)F)[nH]4)c3)ccc21 [RAF265] | 111 ± 3.9 | 107 ± 4.3 | 101 ± 2.5 | 92.9 ± 1.1 | 60.4 ± 1.5 | 41.5 ± 2 | 99.71 ± 0.95 | 102 ± 2.3 | 100.7 ± 0.72 | 92.7 ± 2.6 | 78.2 ± 2.2 | 64.1 ± 0.7 | 1.01 | 1.13 | 1.04 | 1.07 | 0.927 | 0.488 | 0.0802 | 0.0481 | 0.00102 | 1.1 | 1.02 | 1.13 | 1.06 | 1.19 | 1.11 | 0.216 | 0.00279 | 0.00183
O=c1cc(N2CCOCC2)oc2c(-c3cccc4c3sc3ccccc34)cccc12 [NU7441] | 61.9 ± 2.2 | 57.3 ± 5.1 | 78.8 ± 9.5 | 78.5 ± 3 | 88.7 ± 5.2 | 41.2 ± 0.43 | 105 ± 2.5 | 109 ± 1.9 | 111 ± 1.2 | 102.6 ± 0.65 | 101 ± 2.8 | 56.7 ± 1.8 | 1.29 | 0.918 | 0.935 | 0.718 | 0.623 | 0.724 | 0.674 | 0.227 | 0.00895 | 1.06 | 0.893 | 1.08 | 0.961 | 0.89 | 0.85 | 0.236 | 0.00964 | 0.00523
CC[C@@]1(O)C(=O)OCc2c1cc1n(c2=O)Cc2cc3c(CN(C)C)c(O)ccc3nc2-1 [Topotecan Hydrochloride] | 105 ± 5.7 | 110 ± 4.5 | 103 ± 3.6 | 80.067 ± 0.0095 | 30.3 ± 2.4 | 12.7 ± 0.7 | 106 ± 1.4 | 110.5 ± 0.33 | 102 ± 1.7 | 80.31 ± 0.015 | 26.9 ± 0.65 | 7.57 ± 0.098 | 1.03 | 0.984 | 1.06 | 0.956 | 0.888 | 0.268 | 0.0393 | 0.00545 | 0.000822 | 1.08 | 1.08 | 1.03 | 0.883 | 0.692 | 0.00466 | 0.00116 | 0.000564 | 0.0011

From the supplement of paper PMC8960247
